Results: patent publication US5847148A, “Thiadiazole derivatives useful for the treatment of diseases related to connective tissue degradation” (Pharmacia & Upjohn Company, priority 1997, dated 1998)

These compounds were tested against Stromelysin (Homo sapiens, UniProt P08254) (assay: MMP (stromelysin) inhibition, particle concentration fluorescence assay). Conditions: in vitro; fluorescein/biotin substrate; MMP buffer pH 7.5; room temperature; 15 minutes preincubation, 1-3 hours; read-out: Stromelysin Ki (MMP Inhibition Constants).
Stromelysin, sequence (P08254 100-477): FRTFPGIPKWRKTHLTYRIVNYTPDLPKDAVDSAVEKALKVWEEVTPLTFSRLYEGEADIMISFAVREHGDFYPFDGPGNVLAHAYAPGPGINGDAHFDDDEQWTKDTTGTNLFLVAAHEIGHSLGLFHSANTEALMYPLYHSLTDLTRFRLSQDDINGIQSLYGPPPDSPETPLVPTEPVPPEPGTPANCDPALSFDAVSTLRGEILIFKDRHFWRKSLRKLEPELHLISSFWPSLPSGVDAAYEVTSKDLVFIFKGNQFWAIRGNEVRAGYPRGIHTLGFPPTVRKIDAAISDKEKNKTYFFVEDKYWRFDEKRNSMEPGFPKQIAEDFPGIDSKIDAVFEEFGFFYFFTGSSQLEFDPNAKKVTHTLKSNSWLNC
Type: biochemical
Description: Inhibitory activity is evaluated in one or more of the MMP enzymes (stromelysin, gelatinase, and collagenase) in vitro using particle concentration fluorescence assay. An inhibitor binds to MMP enzymes which prevents the degradation of a substrate by stromelysin, gelatinase, or collagenase. The substrate has attached to it a fluorescein and a biotin moiety. The intact substrate then binds to an avidin-coated particle via the biotin moiety. Once the particle is washed and dried, a fluorescent signal is generated since the fluorescent group is attached to the particle. Without an inhibitor present, the substrate is degraded by MMP enzymes and the fluorescein group is removed, therefore, no fluorescent signal can be detected. Testing compounds are dissolved in DMSO to the desired concentration, then the solutions are diluted to 1:5 with MMP buffer (50 mM Tris-HCl, pH 7.5; 150 mM NaCl; 0.02% NaN3). Serial two-fold dilutions of each compound are prepared. A concentrated, activated enzyme solution is transferred into each plate of the testing compounds, and the mixture is incubated at room temperature for 15 minutes. […] At this point, the substrate mixture is mixed with 0.1% avidin-coated polystyrene particles. After 15 minutes, the fluorescence values are measured following filtration and washing of the beads. Ki values are then calculated.
In the case of `CNC(=O)[C@@H](NC(=O)Nc1n[nH]c(=S)s1)[C@@H](C)OCc1ccccc1` [Example 66, 2-[[[(4,5-Dihydro-5-thioxo-1,3,4-thiadiazol-2-yl)amino]carbonyl]amino]-N-methyl-3-(phenylmethoxy)-(2S)-butanamide], the Ki is reported as 0.76 µM. With `COC(=O)[C@H](COC(C)(C)C)NC(=O)Nc1n[nH]c(=S)s1` [Example 67, N-[[(4,5-Dihydro-5-thioxo-1,3,4-thiadiazol-2-yl)amino]carbonyl]-O-(1,1-dimethylethoxy)-L-serine methyl ester] the Ki was 6.7 µM. For `CNC(=O)[C@@H](NC(=O)Nc1n[nH]c(=S)s1)[C@@H](C)OC(C)(C)C` [Example 75, 2-[[[(4,5-Dihydro-5-thioxo-1,3,4-thiadiazol-2-yl)amino]carbonyl]amino]-3-(1,1-dimethylethoxy)-N-methyl-(S)-butanamide], the Ki was 0.67 µM.
